# Results taken from patent US20230001010A1, “COMPOSITIONS AND METHODS FOR TREATING AUTOIMMUNE DISORDERS” (The Regents of the University of Michigan, priority 2019, published 2023).
# How the values were obtained:
# CNS tissues of EAE mice = assay: Cytokine release from CNS cells of treated EAE mice after ex vivo MOG35-55 re-stimulation (ELISA); assay type: in vivo, C57BL/6 mice; conditions: day 40, pulsed ex vivo with MOG35-55
# Description: FIG. 6A is a schematic diagram depicting the treatment regimen. FIG. 6B are graphs showing the amount of GM-CSF, IFN-gamma, and IL-17 released after ex vivo treatment of CNS tissues with MOG35-55 peptide.
# Briefly, female C57BL/6 mice were injected subcutaneously with an emulsion of MOG35-55 ([…], SEQ ID NO: 830) in complete Freund's adjuvant (CFA) and intraperitoneal (i.p.) injection of pertussis toxin (120 ng/dose on days 0 and 2). EAE-induced mice were treated with PBS, free MOG, HDL-MOG, or HDL-M30 (irrelevant CD4+ T cell epitope from B16F10 tumor cells) and CNS tissues were harvested on day 40 (FIG. 10A). CNS tissues were harvested from mice after intracardiac perfusion with PBS. Spinal cord was harvested, homogenized in 10 ml of PBS containing 1% BSA, and pelleted at 800×g for 5 min. Cell pellets were resuspended in 3 ml of collagenase A (1 mg/ml) and DNase I (1 mg/ml) in HBSS and incubated in a 37° C. water bath for 30 min. Samples were pelleted at 800×g, resuspended in 27% Percoll, and centrifuged for 10 min at 800×g. The myelin/debris layer and Percoll were removed, and the cell pellet was stained and analyzed by flow cytometric analysis. Splenic immune cells were isolated by homogenization through a 70 µm strainer (BD Falcon). RBCs were lysed using ACK lysis buffer. Cells were washed with 25 ml of PBS, centrifuged at 800×g, resuspended in FACS buffer, and stained with antibodies. For the cellular surface staining, cells were resuspended in PBS with a fixable viability dye (BV510) for 10 min. Then, cells were washed two times with FACs buffer and resuspended in Fc Block (anti-CD16/32; 100 ng/ml). For ex vivo re-stimulation, cells were incubated for 96 hr with MOG35-55 before brefeldin A (BFA) (5 μg/ml) was added for 4 h. For intracellular staining, cells were stained for surface markers, fixed/permeabilized, and stained with antibody for 30 min on the ice. After 2× washing, cells were resuspended in FACS buffer and analyzed by flow cytometric analysis. Data were collected with a Cytek Aurora flow cytometer using FCS express software (V7). […]
# Tregs in the CNS = assay: Frequency of Tregs in CNS of EAE mice (flow cytometry); assay type: in vivo; conditions: EAE-induced mice; day 40
# Description: Cells from CNS were stained by anti-CD25, anti-CD4, and MOG-tetramer, followed by fixation/permeabilization and intracellular staining with anti-Foxp3. Stained cells were then analyzed by flow cytometry. […] On the other hand, mice treated with free MOG peptide or HDL-M30 had basal level of Tregs as in PBS-treated EAE mice (FIGS. 12A-12B).
# [1] = tested on: experimental autoimmune encephalomyelitis (EAE); assay: Experimental autoimmune encephalomyelitis (EAE) mouse model, pathological score; assay type: in vivo, C57BL/6 mice; conditions: for time until mice were moribund: treated on days 2, 9 and 16; for average pathological score: treated s.c. on days 2, 9 and 16
# Description: (§1) HDL nanodisc was prepared as previously described. Briefly, DMPC was dissolved in chloroform, which was evaporated with nitrogen flow and under vacuum for at least 1 h. The resulting lipid film was hydrated in 10 mM sodium phosphate buffer and sonicated in a bath sonicator for 10 min. ApoA1 mimetic peptide 22A dissolved in endotoxin free water was added to the above mixture (22A:DMPC=1:2 weight ratio) to obtain nanodiscs. To load MOG antigen peptide in nanodiscs, each antigen peptide was reacted with 4-(4-maleimidophenyl)-butyric DOPE for 3 h in dimethylformamide (DMF), which was removed by freeze-drying after dilution 10× with endotoxin-free water. The lipid-peptide conjugates were dissolved in DMSO and added to pre-formed sHDL and incubated for 30 min at room temperature. Unreacted MOG peptides were removed by using Zeba Spin Desalting columns (Pierce) following the manufacturer's instructions. The conjugation efficiency of MOG peptide was determined by LC-MS and gel permeation chromatography (GPC). EAE was induced in female C57BL/6 mice by inoculation with 100 μg of MOG in complete Freund's adjuvant on day 0 following the administration of pertussis toxin. Mice were then injected subcutaneously at tail base for therapeutic study with sHDL-MOG, MOG or PBS on indicated days. Mice were weighed and scored daily based on the following guideline: 0, no sign of disease; 1, loss of tone in the tail; 2, hind limb paresis; 3, hind limb paralysis; 4, tetraplegia; and 5, moribund.
# EAE-induced mice were administered s.c. with PBS or HDL-MOG on days 15, 22, and 29, and a subset of animals also received i.p. administration of […] to deplete Tregs at the specified time points (FIG. 13).
# We examined the therapeutic potential of HDL-FTY720 in the EAE model. EAE was initiated as described above. Briefly, EAE was induced in mice as indicated above. Mice received i.p. administration of PBS or HDL-FTY720 (1 mg/kg) on days 14, 21, and 28. Mice were scored daily and assigned EAE scores as indicated above.
# [2] = tested on: CD4+ T cells from CNS cells; assay: Intracellular cytokine staining of CD4+ T cells from CNS; assay type: in vivo, C57BL/6 mice; conditions: day 40
# Description: (§2) Briefly, female C57BL/6 mice were injected subcutaneously with an emulsion of MOG35-55 ([…], SEQ ID NO: 830) in complete Freund's adjuvant (CFA) and intraperitoneal (i.p.) injection of pertussis toxin (120 ng/dose on days 0 and 2). EAE-induced mice were treated with PBS, free MOG, HDL-MOG, or HDL-M30 (irrelevant CD4+ T cell epitope from B16F10 tumor cells) and CNS tissues were harvested on day 40 (FIG. 10A). CNS tissues were harvested from mice after intracardiac perfusion with PBS. Spinal cord was harvested, homogenized in 10 ml of PBS containing 1% BSA, and pelleted at 800×g for 5 min. Cell pellets were resuspended in 3 ml of collagenase A (1 mg/ml) and DNase I (1 mg/ml) in HBSS and incubated in a 37° C. water bath for 30 min. Samples were pelleted at 800×g, resuspended in 27% Percoll, and centrifuged for 10 min at 800×g. The myelin/debris layer and Percoll were removed, and the cell pellet was stained and analyzed by flow cytometric analysis. Splenic immune cells were isolated by homogenization through a 70 µm strainer (BD Falcon). RBCs were lysed using ACK lysis buffer. Cells were washed with 25 ml of PBS, centrifuged at 800×g, resuspended in FACS buffer, and stained with antibodies. For the cellular surface staining, cells were resuspended in PBS with a fixable viability dye (BV510) for 10 min. Then, cells were washed two times with FACs buffer and resuspended in Fc Block (anti-CD16/32; 100 ng/ml). For ex vivo re-stimulation, cells were incubated for 96 hr with MOG35-55 before brefeldin A (BFA) (5 μg/ml) was added for 4 h. For intracellular staining, cells were stained for surface markers, fixed/permeabilized, and stained with antibody for 30 min on the ice. After 2× washing, cells were resuspended in FACS buffer and analyzed by flow cytometric analysis. Data were collected with a Cytek Aurora flow cytometer using FCS express software (V7).
# (§3) On day 40, CNS tissues were isolated and pulsed ex vivo with MOG35-55 peptide, followed by measurement of IL-17, IFN-gamma, and GM-CSF by ELISA (FIG. 10B). […]
# [3] = tested on: CD4+ T cells from splenocytes; assay: Intracellular cytokine staining of CD4+ T cells from splenocytes; assay type: in vivo, C57BL/6 mice; conditions: spleen; day 40
# Description: as §2, §3
# [4] = Antigen / drug loading efficiency in HDL nanodiscs (HPLC/MS); assay type: physicochemical; conditions: antigen / antigen-lipid conjugate loaded into HDL nanodiscs; HPLC/MS
# Description: as §1
# To produce HDL nanodiscs carrying immunomodulatory drugs, 22A, and DMPC were dissolved in acetic acid and freeze-dried overnight as shown above. Drugs (FTY720, ITE, TSA, or SAHA) were dissolved in chloroform and added to lyophilized powder, followed by drying overnight in vacuum oven. Dried samples were rehydrated by 10 mM phosphate buffer. After three heat-cooling cycles, HDL-loaded with drugs were performed. The concentration of each drug was measured by HPLC-MS as shown for FTY720, ITE, TSA, or SAHA (FIGS. 14-17, respectively). Free drugs were used to generate standard curves. […] Samples were also analyzed by dynamic light scattering (DLS) for the particle sizes. […] We also analyzed HDL-FTY720 samples using gel permeation chromatography (GPC) (FIG. 19).
# We synthesized HDL nanodiscs loaded with other CD4+ T cell epitopes for validation of our approach. We have synthesized phospholipids conjugated to either Ea chain 52-68 peptide (EA, ASFEAQGALANIAVDKA (SEQ ID NO: 831)), ovalbumin-II 323-339 peptide (OVA-II, ISQAVHAAHAEINEAGR (SEQ ID NO: 832)), and type-II collagen 250-270 peptide (CIA, […] (SEQ ID NO: 833)), each modified with CSS-peptide at N-terminus. Antigen-lipid conjugates were loaded into HDL nanodiscs as described above and analyzed by HPLC/MS and DLS. EA, OVA-II, and CIA peptides were conjugated to MPB-phospholipids with ˜95% conjugation efficiency (FIGS. 22-25). Antigen-lipid conjugates were efficiently loaded into HDL nanodiscs with ˜90%, ˜84%, and ˜78% loading efficiency for EA, OVA-II, and CIA peptides, respectively (FIGS. 22-25).
# [5] = harsh EAE induced with MOG1-125
sequence,measurement,setting,value
MEVGWYRSPFSRVVHLYRNGK [free MOG peptide],level of GM-CSF in CNS,CNS tissues of EAE mice,high levels
same,level of IFN-gamma in CNS,CNS tissues of EAE mice,high levels
same,level of IL-17 in CNS,CNS tissues of EAE mice,high levels
same,frequency of CD25+Foxp3+ Tregs in the CNS,Tregs in the CNS,basal level
same,time until mice were moribund,[1]; [5],≤ 20 days
same,average pathological score,[1]; [5],5
same,time until mice were moribund,[1]; mild EAE induced with MOG35-55,≤ 20 days
same,average pathological score,[1]; mild EAE induced with MOG35-55,5
same,frequency of CD4+ T cells producing GM-CSF,[2],high frequencies
same,frequency of CD4+ T cells producing IFN-gamma,[2],high frequencies
same,frequency of CD4+ T cells producing IL-17,[2],high frequencies
same,frequency of CD4+ T cells producing GM-CSF,[3],high frequencies
same,frequency of CD4+ T cells producing IFN-gamma,[3],high frequencies
same,frequency of CD4+ T cells producing IL-17,[3],high frequencies
same,loading efficiency in HDL,[4],~90%
